Our source for the IC50 values is US10660876B2, “Amino compounds for treatment of medical disorders” (Achillion Pharmaceuticals, Inc., priority 2015, dated 2020).

Human Factor D, sequence (P00746 26-253): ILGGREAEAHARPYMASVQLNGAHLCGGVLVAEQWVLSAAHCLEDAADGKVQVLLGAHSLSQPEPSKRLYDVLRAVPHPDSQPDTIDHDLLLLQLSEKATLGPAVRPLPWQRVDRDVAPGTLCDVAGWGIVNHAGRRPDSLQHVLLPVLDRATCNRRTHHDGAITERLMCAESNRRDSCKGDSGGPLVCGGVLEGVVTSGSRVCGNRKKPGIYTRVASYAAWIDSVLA

The experiment deals with Human Factor D (Homo sapiens (Human), UniProt P00746). As to the kind of experiment: Human Factor D Assay. The class given is biochemical. The conditions noted are these: Table 1; Factor D purified from human serum, 80 nM, substrate Z-L-Lys-SBzl; read-out: IC50. As for the experimental part:
Example 12. Human Factor D Assay
Human Factor D (purified from human serum, Complement Technology, Inc.) at 80 nM final concentration is incubated with test compound at various concentrations for 5 minutes at room temperature in 50 mM Tris, 1M NaCl, pH 7.5. A synthetic substrate Z-L-Lys-SBzl and DTNB (Ellman's reagent) are added to final concentrations of 100 μM each. Absorbance at 405 nm (A405) is recorded at 30 second intervals for 30 minutes using a microplate spectrophotometer. IC50 values are calculated by nonlinear regression of complement Factor D reaction rates as a function of test compound concentration.
As usually defined, the IC50 is the midpoint of a concentration-inhibition curve. `CC(=O)c1cn(CC(=O)N2C[C@H](F)C[C@H]2C(=O)Nc2cccc(-c3ccccc3Cl)c2F)c2ccc(N(COC(=O)C(C)(C)C)c3cncnc3)cc12` [Compound 15, ((3-acetyl-1-(2-((2S,4R)-2-(2′-chloro-2-fluorobiphenyl-3-ylcarbamoyl)-4-fluoropyrrolidin-1-yl)-2-oxoethyl)-1H-indol-5-yl)(pyrimidin-5-yl)amino)methyl pivalate]: the IC50 was 1000 to 10000 nM.

`CC(=O)c1cn(CC(=O)N2C[C@H](F)C[C@H]2C(=O)NCc2ccccn2)c2ccc(Nc3cncnc3)cc12` [Compound 17, (2S,4R)-1-(2-(3-acetyl-5-(pyrimidin-5-ylamino)-1H-indol-1-yl)acetyl)-4-fluoro-N-(pyridin-2-ylmethyl) pyrrolidine-2-carboxamide]: the IC50 is less than 1000 nM.

Turning to `CC(=O)c1cn(CC(=O)N2C[C@H](F)C[C@H]2C(=O)NCc2cc(F)cc(Cl)c2)c2ccc(Nc3cncnc3)cc12` [Compound 18, (2S,4R)-1-(2-(3-acetyl-5-(pyrimidin-5-ylamino)-1H-indol-1-yl)acetyl)-N-(3-chloro-5-fluorobenzyl)-4-fluoropyrrolidine-2-carboxamide], the half-inhibitory concentration (IC50) was less than 1000 nM.

In the case of `CC(=O)c1cn(CC(=O)N2C[C@H](F)C[C@H]2C(=O)NCc2cccc(Cl)c2)c2ccc(Nc3cncnc3)cc12` [Compound 19, (2S,4R)-1-(2-(3-acetyl-5-(pyrimidin-5-ylamino)-1H-indol-1-yl)acetyl)-N-(3-chlorobenzyl)-4-fluoropyrrolidine-2-carboxamide], the IC50 was less than 1000 nM.

As to `CC(=O)c1cn(CC(=O)N2C[C@H](F)C[C@H]2C(=O)Nc2cncc(Br)c2)c2ccc(Nc3cncnc3)cc12` [Compound 21, (2S,4R)-1-(2-(3-acetyl-5-(pyrimidin-5-ylamino)-1H-indol-1-yl)acetyl)-N-(5-bromopyridin-3-yl)-4-fluoropyrrolidine-2-carboxamide], the IC50 is less than 1000 nM.

For the compound `CC(=O)c1cn(CC(=O)N2C[C@H](F)C[C@H]2C(=O)Nc2cncc(Cl)c2)c2ccc(Nc3cncnc3)cc12` [Compound 22, (2S,4R)-1-(2-(3-acetyl-5-(pyrimidin-5-ylamino)-1H-indol-1-yl)acetyl)-N-(5-chloropyridin-3-yl)-4-fluoropyrrolidine-2-carboxamide], the IC50 is less than 1000 nM.

`CCN1Cc2ccc(NC(=O)[C@@H]3C[C@@H](F)CN3C(=O)Cn3cc(C(C)=O)c4cc(Nc5cncnc5)ccc43)cc2C1=O` [Compound 23, (2S,4R)-1-(2-(3-acetyl-5-(pyrimidin-5-ylamino)-1H-indol-1-yl)acetyl)-N-(2-ethyl-3-oxoisoindolin-5-yl)-4-fluoropyrrolidine-2-carboxamide]: the IC50 was less than 1000 nM.

On to `CC(=O)c1cn(CC(=O)N2C[C@H](F)C[C@H]2C(=O)Nc2cccc3c2OC(C)(C)C3)c2ccc(Nc3cncnc3)cc12` [Compound 24, (2S,4R)-1-(2-(3-acetyl-5-(pyrimidin-5-ylamino)-1H-indol-1-yl)acetyl)-N-(2,2-dimethyl-2,3-dihydrobenzofuran-7-yl)-4-fluoropyrrolidine-2-carboxamide], for which the IC50 was less than 1000 nM.

Take `CC(=O)c1cn(CC(=O)N2C[C@H](F)C[C@H]2C(=O)Nc2ccc3cn[nH]c3c2)c2ccc(Nc3cncnc3)cc12` [Compound 25, (2S,4R)-1-(2-(3-acetyl-5-(pyrimidin-5-ylamino)-1H-indol-1-yl)acetyl)-4-fluoro-N-(1H-indazol-6-yl)pyrrolidine-2-carboxamide]: the IC50 is less than 1000 nM.

For the compound `CC(=O)c1cn(CC(=O)N2C[C@H](F)C[C@H]2C(=O)Nc2ccc(F)c(-c3nnc4n3CCCCC4)c2)c2ccc(Nc3cncnc3)cc12` [Compound 26, (2S,4R)-1-(2-(3-acetyl-5-(pyrimidin-5-ylamino)-1H-indol-1-yl)acetyl)-4-fluoro-N-(4-fluoro-3-(6,7,8,9-tetrahydro-5H-[1,2,4]triazolo[4,3-a]azepin-3-yl)phenyl) pyrrolidine-2-carboxamide], the IC50 was less than 1000 nM.

As to `CC(=O)c1cn(CC(=O)N2C[C@H](F)C[C@H]2C(=O)Nc2cccc3c2CN(c2ccccn2)C3)c2ccc(Nc3cncnc3)cc12` [Compound 27, (2S,4R)-1-(2-(3-acetyl-5-(pyrimidin-5-ylamino)-1H-indol-1-yl)acetyl)-4-fluoro-N-(2-(pyridin-2-yl)isoindolin-4-yl)pyrrolidine-2-carboxamide], the IC50 lay in the range of 1000 to 10000 nM.

Consider `CC(=O)c1cn(CC(=O)N2C[C@H](F)C[C@H]2C(=O)NC2CCCc3nc(-c4ccc(F)cc4)sc32)c2ccc(Nc3cncnc3)cc12` (stereo partly drawn) [Compound 28, (2S,4R)-1-(2-(3-acetyl-5-(pyrimidin-5-ylamino)-1H-indol-1-yl)acetyl)-4-fluoro-N-(2-(4-fluorophenyl)-4,5,6,7-tetrahydrobenzo[d]thiazol-7-yl)pyrrolidine-2-carboxamide], for which the IC50 was more than 10000 nM.

For `CC(=O)c1cn(CC(=O)N2C[C@H](F)C[C@H]2C(=O)Nc2nc(-c3ccccc3Cl)ns2)c2ccc(Nc3cncnc3)cc12` [Compound 29, (2S,4R)-1-(2-(3-acetyl-5-(pyrimidin-5-ylamino)-1H-indol-1-yl)acetyl)-N-(3-(2-chlorophenyl)-1,2,4-thiadiazol-5-yl)-4-fluoropyrrolidine-2-carboxamide], the IC50 is less than 1000 nM.

As to `CC(=O)c1cn(CC(=O)N2C[C@H](F)C[C@H]2C(=O)Nc2cccnc2)c2ccc(Nc3cncnc3)cc12` [Compound 31, (2S,4R)-1-(2-(3-acetyl-5-(pyrimidin-5-ylamino)-1H-indol-1-yl)acetyl)-4-fluoro-N-(pyridin-3-yl)pyrrolidine-2-carboxamide], the IC50 is less than 1000 nM.

As for `CC(=O)c1cn(CC(=O)N2C[C@H](F)C[C@H]2C(=O)Nc2cncc(Cl)n2)c2ccc(Nc3cncnc3)cc12` [Compound 33, (2S,4R)-1-(2-(3-acetyl-5-(pyrimidin-5-ylamino)-1H-indol-1-yl)acetyl)-N-(6-chloropyrazin-2-yl)-4-fluoropyrrolidine-2-carboxamide], the IC50 is less than 1000 nM.

For the compound `CC(=O)c1cn(CC(=O)N2C[C@H](F)C[C@H]2C(=O)Nc2cc3c(cc2F)OC(F)(F)O3)c2ccc(Nc3cncnc3)cc12` [Compound 35, (2S,4R)-1-(2-(3-acetyl-5-(pyrimidin-5-ylamino)-1H-indol-1-yl)acetyl)-4-fluoro-N-(2,2,6-trifluorobenzo[d] [1,3]dioxol-5-yl)pyrrolidine-2-carboxamide], the IC50 is less than 1000 nM.

`CC(=O)c1cn(CC(=O)N2C[C@H](F)C[C@H]2C(=O)Nc2ccc3[nH]c(C)c(C)c3c2)c2ccc(Nc3cncnc3)cc12` [Compound 38, (2S,4R)-1-(2-(3-acetyl-5-(pyrimidin-5-ylamino)-1H-indol-1-yl)acetyl)-N-(2,3-dimethyl-1H-indol-5-yl)-4-fluoropyrrolidine-2-carboxamide]: the IC50 was less than 1000 nM.

With `CC(=O)c1cn(C(=O)CN2C[C@H](F)C[C@H]2C(=O)Nc2nnc(-c3ccc(Cl)c(Cl)c3)s2)c2ccc(Nc3cncnc3)cc12` [Compound 39, (2S,4R)-1-(2-(3-acetyl-5-(pyrimidin-5-ylamino)-1H-indol-1-yl)-2-oxoethyl)-N-(5-(3,4-dichlorophenyl)-1,3,4-thiadiazol-2-yl)-4-fluoropyrrolidine-2-carboxamide], the IC50 is more than 10000 nM.

As for `CC(=O)c1cn(CC(=O)N2C[C@H](F)C[C@H]2C(=O)Nc2cc(C)nc3nc(C(F)(F)F)nn23)c2ccc(Nc3cncnc3)cc12` [Compound 41, (2S,4R)-1-(2-(3-acetyl-5-(pyrimidin-5-ylamino)-1H-indol-1-yl)acetyl)-4-fluoro-N-(5-methyl-2-(trifluoromethyl)-[1,2,4]triazolo[1,5-a]pyrimidin-7-yl)pyrrolidine-2-carboxamide], the IC50 was more than 10000 nM.

As for `CC(=O)c1cn(CC(=O)N2C[C@H](F)C[C@H]2C(=O)NC2CCCN(c3cnn(C)c3)C2)c2ccc(Nc3cncnc3)cc12` (stereo partly drawn) [Compound 42, (2S,4R)-1-(2-(3-acetyl-5-(pyrimidin-5-ylamino)-1H-indol-1-yl)acetyl)-4-fluoro-N-(1-(1-methyl-1H-pyrazol-4-yl)piperidin-3-yl)pyrrolidine-2-carboxamide], the IC50 is less than 1000 nM.

In the case of `CC(=O)c1cn(CC(=O)N2C[C@H](F)C[C@H]2C(=O)NCc2cccnc2)c2ccc(Nc3cncnc3)cc12` [Compound 43, (2S,4R)-1-(2-(3-acetyl-5-(pyrimidin-5-ylamino)-1H-indol-1-yl)acetyl)-4-fluoro-N-(pyridin-3-ylmethyl) pyrrolidine-2-carboxamide], the IC50 was less than 1000 nM.

Take `CC(=O)c1cn(CC(=O)N2C[C@H](F)C[C@H]2C(=O)Nc2ncc(Br)cn2)c2ccc(Nc3cncnc3)cc12` [Compound 44, (2S,4R)-1-(2-(3-acetyl-5-(pyrimidin-5-ylamino)-1H-indol-1-yl)acetyl)-N-(5-bromopyrimidin-2-yl)-4-fluoropyrrolidine-2-carboxamide]: the IC50 was less than 1000 nM.

Take `CC(=O)c1cn(CC(=O)N2C[C@H](F)C[C@H]2C(=O)Nc2ccc(OCc3ccccc3)cn2)c2ccc(Nc3cncnc3)cc12` [Compound 45, (2S,4R)-1-(2-(3-acetyl-5-(pyrimidin-5-ylamino)-1H-indol-1-yl)acetyl)-N-(5-(benzyloxy)pyridin-2-yl)-4-fluoropyrrolidine-2-carboxamide]: the IC50 is less than 1000 nM.

As to `CC(=O)c1cn(CC(=O)N2C[C@H](F)C[C@H]2C(=O)Nc2ccc3ccccc3c2)c2ccc(Nc3cncnc3)cc12` [Compound 46, (2S,4R)-1-(2-(3-acetyl-5-(pyrimidin-5-ylamino)-1H-indol-1-yl)acetyl)-4-fluoro-N-(naphthalen-2-yl)pyrrolidine-2-carboxamide], the IC50 is less than 1000 nM.

On to `CC(=O)c1cn(CC(=O)N2C[C@H](F)C[C@H]2C(=O)Nc2cncc(Br)n2)c2ccc(Nc3cncnc3)cc12` [Compound 47, (2S,4R)-1-(2-(3-acetyl-5-(pyrimidin-5-ylamino)-1H-indol-1-yl)acetyl)-N-(6-bromopyrazin-2-yl)-4-fluoropyrrolidine-2-carboxamide], for which the IC50 is less than 1000 nM.
